{"source": "patent US11364231B2", "about": "“Methods of treating radiation induced gastrointestinal syndrome (RIGS) and related disease states using YEL002/BCN057” (priority 2017, dated 2022)", "key": {"[1]": {"tested_on": "C57B16 mice exposed to PBI (BM40)", "assay": "Survival after partial body irradiation (PBI, BM40)", "assay_type": "in vivo", "settings": "14.5 Gy PBI (BM40), BCN057 at 24 hrs post PBI; untreated dead within 12 days", "text": "FIG. 1C. Kaplan Meier survival analysis of C57B16 mice (n=25/group) exposed to PBI (BM40). Head & Neck and upper extremities were shielded to spare 40% of bone marrow.\nUnless there has been a very focal radiation exposure there will also be involvement of many other organ systems, and their differential responses to various doses of irradiation will impact the gastrointestinal acute radiation syndrome (GI-ARS) dose response. All radiation doses inducing GI-ARS will have a major impact on the bone marrow, which in turn will affect the levels of intestinal inflammation and ability of the body to manage the infection resulting from bacterial translocation through an impaired intestinal mucosal barrier. To investigate involvement of bone marrow in survival outcome upon BCN057 treatment, C57B16 mice were exposed to partial body irradiation (PBI) where 40% of total bone marrow was […] to irradiation after shielding head and fore limbs. Treatment with BCN057 at 24 hrs post exposure of 14.5 Gy PBI rescued 70% of mice from radiation lethality (p<0.0001). However, all the untreated mice were dead within 12 days post-exposure (FIG. 1C)."}, "β-catenin target genes": {"tested_on": "β-catenin target genes", "assay": "Real-time PCR of β-catenin target genes in crypt cells", "assay_type": "in vivo", "settings": "crypt epithelial cells, irradiated mice treated with BCN057 vs irradiated control", "experimental": "To compare the mRNA levels of β-catenin target genes in intestinal crypt cells from irradiated mice treated with BCN057 or PBS real-time PCR were performed using primer pairs for the genes Ephb2, Ascl, Olf, Tcf, Lef, Sox9 and Axin. RNA was isolated from crypt cells using RNeasy mini kit from Qiagen. Preparation of cDNA followed by real-time PCR array was performed according to manufacturer protocol (Qiagen)."}, "[2]": {"tested_on": "human malignant colonic organoids", "assay": "Human colon tumor derived organoids with or without irradiation", "assay_type": "cell-based", "text": "FIG. 16. […] Organoids derived from surgical specimen of colon tumor were exposed to irradiation (8Gy) and then treated with BCN057. Note loss of budding crypt like structure in Irradiated organoids treated with BCN057.\nFIG. 17. […] Budding crypt to total crypt ratio reduced in a dose dependent manner following irradiation (2-8 Gy).\nBCN057 was first examined in the National Cancer Institute (NCI) 60 cancer cell line platform. Several of these cell lines are known to be positive for dysregulation of the Wnt/b-catenin signaling pathway. […] Next we examined the effect of BCN057 in human colonic tumor derived organoids exposed to irradiation."}, "[3]": {"tested_on": "irradiated intestinal epithelium (jejunum)", "assay": "Jejunum histology and crypt proliferation after AIR", "assay_type": "in vivo"}}, "note": "“Also recorded” adds a separate entry of the source.", "data": [{"smiles": "COc1ccc2cc(-c3nc4ccc(C)cn4c3NCc3ccco3)c(=O)[nH]c2c1", "note": "[BCN057, 3-(3((furan-2-ylmethyl)ammo)-6-methylimidazo[1,2-a]pyridine-2-yl)-6-methoxyquinolin-2(1H)-one]", "values": [{"measurement": "survival", "setting": "[1]", "result": 70, "unit": "%"}, {"measurement": "mRNA level of β-catenin target genes", "setting": "β-catenin target genes", "result": "several fold increases"}, {"measurement": "rescue of malignant organoids from radiation toxicity", "setting": "[2]; 8Gy (2-8 Gy in FIG. 17), BCN057 10 uM at 1 hr post radiation", "result": "did not recue organoids from radiation toxicity; also recorded: did not rescue; also recorded: could not reduce the radiation toxicity"}, {"measurement": "growth and proliferation of malignant organoid", "setting": "[2]; un-irradiated organoids treated with BCN057", "result": "inhibitory effect"}, {"measurement": "percent of BrdU+ve crypt epithelial cells", "setting": "[3]; BCN057 treated vs untreated irradiated control, p<0.0005", "result": "significantly higher"}, {"measurement": "crypt villus morphology and BRDU incorporation", "setting": "[3]; non-irradiated mice treated with BCN057", "result": "did not induce any changes"}]}]}
